Source: ChEMBL document CHEMBL4507274 (2021)

Experiments:
[1] = target: AP2-associated protein kinase 1 (Homo sapiens) (UniProt Q2M2I8); settings: Compound concentration 100.0 nM
[2] = tested on: Tyrosine-protein kinase ABL1 (Homo sapiens), P00519 [H396P]; settings: Compound concentration 100.0 nM
[3] = target: Tyrosine-protein kinase ABL1 (Homo sapiens) (UniProt P00519); settings: Compound concentration 100.0 nM
[4] = target: RAC-beta serine/threonine-protein kinase (Homo sapiens) (UniProt P31751); settings: Compound concentration 100.0 nM
[5] = target: Bone morphogenetic protein receptor type-2 (Homo sapiens) (UniProt Q13873); settings: Compound concentration 100.0 nM
[6] = target: T1, Cytoplasmic tyrosine-protein kinase BMX (Homo sapiens) (UniProt P51813); settings: Compound concentration 100.0 nM
T1 sequence (whole entry): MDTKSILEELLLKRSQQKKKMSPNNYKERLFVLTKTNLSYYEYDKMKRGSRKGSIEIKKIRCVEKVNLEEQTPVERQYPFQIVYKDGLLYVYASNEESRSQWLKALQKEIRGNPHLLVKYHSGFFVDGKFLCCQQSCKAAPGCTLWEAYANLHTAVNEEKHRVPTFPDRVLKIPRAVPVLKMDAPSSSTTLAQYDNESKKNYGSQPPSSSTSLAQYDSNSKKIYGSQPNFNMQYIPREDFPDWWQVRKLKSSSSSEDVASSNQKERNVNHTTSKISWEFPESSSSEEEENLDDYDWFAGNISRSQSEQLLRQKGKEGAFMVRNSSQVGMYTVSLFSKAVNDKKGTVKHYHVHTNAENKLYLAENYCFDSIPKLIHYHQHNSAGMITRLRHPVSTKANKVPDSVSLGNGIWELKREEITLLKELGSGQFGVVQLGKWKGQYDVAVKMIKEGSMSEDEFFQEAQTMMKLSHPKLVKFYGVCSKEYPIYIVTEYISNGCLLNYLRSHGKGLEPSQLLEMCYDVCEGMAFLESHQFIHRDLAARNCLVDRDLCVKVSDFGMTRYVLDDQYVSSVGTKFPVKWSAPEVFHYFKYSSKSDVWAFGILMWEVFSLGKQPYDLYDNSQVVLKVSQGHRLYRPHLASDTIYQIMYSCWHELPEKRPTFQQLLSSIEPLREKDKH

[7] = target: Calcium/calmodulin-dependent protein kinase kinase 2 (Homo sapiens) (UniProt Q96RR4); settings: Compound concentration 100.0 nM
[8] = target: Cyclin-dependent kinase 19 (Homo sapiens) (UniProt Q9BWU1); settings: Compound concentration 100.0 nM
[9] = target: Dual specificity protein kinase CLK1 (Homo sapiens) (UniProt P49759); settings: Compound concentration 100.0 nM
[10] = target: Casein kinase I isoform gamma-2 (Homo sapiens) (UniProt P78368); settings: Compound concentration 100.0 nM
[11] = target: Ephrin type-A receptor 1 (Homo sapiens) (UniProt P21709); settings: Compound concentration 100.0 nM
[12] = target: Tyrosine-protein kinase Fes/Fps (Homo sapiens) (UniProt P07332); settings: Compound concentration 100.0 nM
[13] = target: Glycogen synthase kinase-3 beta (Homo sapiens) (UniProt P49841); settings: Compound concentration 100.0 nM
[14] = target: Hormonally up-regulated neu tumor-associated kinase (Homo sapiens) (UniProt P57058); settings: Compound concentration 100.0 nM
[15] = target: Insulin receptor (Homo sapiens) (UniProt P06213); settings: Compound concentration 100.0 nM
[16] = target: Interleukin-1 receptor-associated kinase 4 (Homo sapiens) (UniProt Q9NWZ3); settings: Compound concentration 100.0 nM
[17] = target: Mitogen-activated protein kinase kinase kinase kinase 5 (Homo sapiens) (UniProt Q9Y4K4); settings: Compound concentration 100.0 nM
[18] = target: MAP/microtubule affinity-regulating kinase 3 (Homo sapiens) (UniProt P27448); settings: Compound concentration 100.0 nM
[19] = target: MAP/microtubule affinity-regulating kinase 4 (Homo sapiens) (UniProt Q96L34); settings: Compound concentration 100.0 nM
[20] = target: Muscle, skeletal receptor tyrosine-protein kinase (Homo sapiens) (UniProt O15146); settings: Compound concentration 100.0 nM
[21] = target: Cyclin-dependent kinase 16 (Homo sapiens) (UniProt Q00536); settings: Compound concentration 100.0 nM
[22] = target: Phosphatidylinositol 4,5-bisphosphate 3-kinase catalytic subunit gamma isoform (Homo sapiens) (UniProt P48736); settings: Compound concentration 100.0 nM
[23] = target: Ribosomal protein S6 kinase alpha-5 (Homo sapiens) (UniProt O75582); settings: Compound concentration 100.0 nM
[24] = target: Serine/threonine-protein kinase SIK1 (Homo sapiens) (UniProt P57059); settings: Compound concentration 100.0 nM
[25] = target: Serine/threonine-protein kinase tousled-like 2 (Homo sapiens) (UniProt Q86UE8); settings: Compound concentration 100.0 nM
[26] = target: BDNF/NT-3 growth factors receptor (Homo sapiens) (UniProt Q16620); settings: Compound concentration 100.0 nM
[27] = target: Serine/threonine-protein kinase ULK1 (Homo sapiens) (UniProt O75385); settings: Compound concentration 100.0 nM
[28] = target: Wee1-like protein kinase 2 (Homo sapiens) (UniProt P0C1S8); settings: Compound concentration 100.0 nM
[29] = target: Serine/threonine-protein kinase WNK2 (Homo sapiens) (UniProt Q9Y3S1); settings: Compound concentration 100.0 nM
[30] = target: 5-hydroxytryptamine receptor 2B (Homo sapiens) (UniProt P41595); settings: Compound concentration 10.0 uM
[31] = target: 5-hydroxytryptamine receptor 2C (Homo sapiens) (UniProt P28335); settings: Compound concentration 10.0 uM
[32] = target: 5-hydroxytryptamine receptor 5A (Homo sapiens) (UniProt P47898); settings: Compound concentration 10.0 uM
[33] = target: Histamine H2 receptor (Homo sapiens) (UniProt P25021); settings: Compound concentration 10.0 uM
Sequence of Histamine H2 receptor (Homo sapiens) (P25021 whole entry): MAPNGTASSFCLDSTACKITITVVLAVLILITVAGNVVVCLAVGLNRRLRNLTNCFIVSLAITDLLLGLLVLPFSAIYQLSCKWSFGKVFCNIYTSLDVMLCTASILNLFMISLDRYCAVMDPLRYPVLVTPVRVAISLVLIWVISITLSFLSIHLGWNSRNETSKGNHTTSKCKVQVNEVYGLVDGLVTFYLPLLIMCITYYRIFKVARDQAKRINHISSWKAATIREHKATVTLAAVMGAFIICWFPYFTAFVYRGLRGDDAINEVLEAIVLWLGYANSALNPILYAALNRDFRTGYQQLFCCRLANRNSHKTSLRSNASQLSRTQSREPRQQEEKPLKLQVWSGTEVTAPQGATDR

Sequence of BDNF/NT-3 growth factors receptor (Homo sapiens) (Q16620 32-822 limits assumed): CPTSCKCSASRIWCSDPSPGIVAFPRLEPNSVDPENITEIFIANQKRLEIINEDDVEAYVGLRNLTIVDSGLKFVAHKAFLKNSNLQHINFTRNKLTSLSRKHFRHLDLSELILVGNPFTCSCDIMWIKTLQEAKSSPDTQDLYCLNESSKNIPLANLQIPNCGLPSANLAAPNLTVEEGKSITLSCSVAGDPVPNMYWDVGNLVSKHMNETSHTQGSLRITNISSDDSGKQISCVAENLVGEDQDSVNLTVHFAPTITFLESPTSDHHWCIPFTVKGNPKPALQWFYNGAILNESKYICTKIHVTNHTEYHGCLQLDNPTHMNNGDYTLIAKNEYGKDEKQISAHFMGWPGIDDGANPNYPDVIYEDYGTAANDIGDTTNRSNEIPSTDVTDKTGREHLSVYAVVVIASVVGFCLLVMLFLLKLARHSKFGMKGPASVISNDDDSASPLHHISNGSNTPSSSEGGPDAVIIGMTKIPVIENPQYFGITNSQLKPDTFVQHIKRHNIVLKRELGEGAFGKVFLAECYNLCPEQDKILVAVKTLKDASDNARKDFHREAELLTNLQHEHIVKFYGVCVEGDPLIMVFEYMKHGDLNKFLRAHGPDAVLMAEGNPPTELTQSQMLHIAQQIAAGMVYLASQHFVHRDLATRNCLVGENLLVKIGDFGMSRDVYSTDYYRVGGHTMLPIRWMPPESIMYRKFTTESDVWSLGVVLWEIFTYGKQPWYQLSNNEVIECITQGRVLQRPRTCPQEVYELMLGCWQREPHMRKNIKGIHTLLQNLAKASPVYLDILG
Sequence of Mitogen-activated protein kinase kinase kinase kinase 5 (Homo sapiens) (Q9Y4K4 whole entry, looked up): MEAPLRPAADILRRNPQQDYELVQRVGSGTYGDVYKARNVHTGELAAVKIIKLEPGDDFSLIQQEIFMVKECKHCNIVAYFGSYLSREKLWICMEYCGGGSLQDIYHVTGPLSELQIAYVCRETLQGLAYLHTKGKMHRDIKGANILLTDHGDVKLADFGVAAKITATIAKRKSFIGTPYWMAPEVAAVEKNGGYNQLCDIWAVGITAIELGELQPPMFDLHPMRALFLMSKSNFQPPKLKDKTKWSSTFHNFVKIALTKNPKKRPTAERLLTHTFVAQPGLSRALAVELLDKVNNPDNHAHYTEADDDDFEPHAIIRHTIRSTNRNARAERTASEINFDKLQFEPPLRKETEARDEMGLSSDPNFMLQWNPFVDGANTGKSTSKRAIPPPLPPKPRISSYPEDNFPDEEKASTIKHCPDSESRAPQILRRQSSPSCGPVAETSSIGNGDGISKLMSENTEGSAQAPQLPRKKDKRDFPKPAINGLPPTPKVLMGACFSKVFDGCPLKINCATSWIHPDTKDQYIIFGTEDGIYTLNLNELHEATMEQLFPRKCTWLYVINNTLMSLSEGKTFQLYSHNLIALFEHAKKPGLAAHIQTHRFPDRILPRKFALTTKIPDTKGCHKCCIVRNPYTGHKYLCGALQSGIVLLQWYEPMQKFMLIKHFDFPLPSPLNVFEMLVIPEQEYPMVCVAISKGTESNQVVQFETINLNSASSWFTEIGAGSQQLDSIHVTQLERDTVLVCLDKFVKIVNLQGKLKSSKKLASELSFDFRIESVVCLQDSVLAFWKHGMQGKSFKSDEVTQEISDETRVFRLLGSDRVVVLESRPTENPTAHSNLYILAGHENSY
Sequence of Serine/threonine-protein kinase WNK2 (Homo sapiens) (Q9Y3S1 whole entry): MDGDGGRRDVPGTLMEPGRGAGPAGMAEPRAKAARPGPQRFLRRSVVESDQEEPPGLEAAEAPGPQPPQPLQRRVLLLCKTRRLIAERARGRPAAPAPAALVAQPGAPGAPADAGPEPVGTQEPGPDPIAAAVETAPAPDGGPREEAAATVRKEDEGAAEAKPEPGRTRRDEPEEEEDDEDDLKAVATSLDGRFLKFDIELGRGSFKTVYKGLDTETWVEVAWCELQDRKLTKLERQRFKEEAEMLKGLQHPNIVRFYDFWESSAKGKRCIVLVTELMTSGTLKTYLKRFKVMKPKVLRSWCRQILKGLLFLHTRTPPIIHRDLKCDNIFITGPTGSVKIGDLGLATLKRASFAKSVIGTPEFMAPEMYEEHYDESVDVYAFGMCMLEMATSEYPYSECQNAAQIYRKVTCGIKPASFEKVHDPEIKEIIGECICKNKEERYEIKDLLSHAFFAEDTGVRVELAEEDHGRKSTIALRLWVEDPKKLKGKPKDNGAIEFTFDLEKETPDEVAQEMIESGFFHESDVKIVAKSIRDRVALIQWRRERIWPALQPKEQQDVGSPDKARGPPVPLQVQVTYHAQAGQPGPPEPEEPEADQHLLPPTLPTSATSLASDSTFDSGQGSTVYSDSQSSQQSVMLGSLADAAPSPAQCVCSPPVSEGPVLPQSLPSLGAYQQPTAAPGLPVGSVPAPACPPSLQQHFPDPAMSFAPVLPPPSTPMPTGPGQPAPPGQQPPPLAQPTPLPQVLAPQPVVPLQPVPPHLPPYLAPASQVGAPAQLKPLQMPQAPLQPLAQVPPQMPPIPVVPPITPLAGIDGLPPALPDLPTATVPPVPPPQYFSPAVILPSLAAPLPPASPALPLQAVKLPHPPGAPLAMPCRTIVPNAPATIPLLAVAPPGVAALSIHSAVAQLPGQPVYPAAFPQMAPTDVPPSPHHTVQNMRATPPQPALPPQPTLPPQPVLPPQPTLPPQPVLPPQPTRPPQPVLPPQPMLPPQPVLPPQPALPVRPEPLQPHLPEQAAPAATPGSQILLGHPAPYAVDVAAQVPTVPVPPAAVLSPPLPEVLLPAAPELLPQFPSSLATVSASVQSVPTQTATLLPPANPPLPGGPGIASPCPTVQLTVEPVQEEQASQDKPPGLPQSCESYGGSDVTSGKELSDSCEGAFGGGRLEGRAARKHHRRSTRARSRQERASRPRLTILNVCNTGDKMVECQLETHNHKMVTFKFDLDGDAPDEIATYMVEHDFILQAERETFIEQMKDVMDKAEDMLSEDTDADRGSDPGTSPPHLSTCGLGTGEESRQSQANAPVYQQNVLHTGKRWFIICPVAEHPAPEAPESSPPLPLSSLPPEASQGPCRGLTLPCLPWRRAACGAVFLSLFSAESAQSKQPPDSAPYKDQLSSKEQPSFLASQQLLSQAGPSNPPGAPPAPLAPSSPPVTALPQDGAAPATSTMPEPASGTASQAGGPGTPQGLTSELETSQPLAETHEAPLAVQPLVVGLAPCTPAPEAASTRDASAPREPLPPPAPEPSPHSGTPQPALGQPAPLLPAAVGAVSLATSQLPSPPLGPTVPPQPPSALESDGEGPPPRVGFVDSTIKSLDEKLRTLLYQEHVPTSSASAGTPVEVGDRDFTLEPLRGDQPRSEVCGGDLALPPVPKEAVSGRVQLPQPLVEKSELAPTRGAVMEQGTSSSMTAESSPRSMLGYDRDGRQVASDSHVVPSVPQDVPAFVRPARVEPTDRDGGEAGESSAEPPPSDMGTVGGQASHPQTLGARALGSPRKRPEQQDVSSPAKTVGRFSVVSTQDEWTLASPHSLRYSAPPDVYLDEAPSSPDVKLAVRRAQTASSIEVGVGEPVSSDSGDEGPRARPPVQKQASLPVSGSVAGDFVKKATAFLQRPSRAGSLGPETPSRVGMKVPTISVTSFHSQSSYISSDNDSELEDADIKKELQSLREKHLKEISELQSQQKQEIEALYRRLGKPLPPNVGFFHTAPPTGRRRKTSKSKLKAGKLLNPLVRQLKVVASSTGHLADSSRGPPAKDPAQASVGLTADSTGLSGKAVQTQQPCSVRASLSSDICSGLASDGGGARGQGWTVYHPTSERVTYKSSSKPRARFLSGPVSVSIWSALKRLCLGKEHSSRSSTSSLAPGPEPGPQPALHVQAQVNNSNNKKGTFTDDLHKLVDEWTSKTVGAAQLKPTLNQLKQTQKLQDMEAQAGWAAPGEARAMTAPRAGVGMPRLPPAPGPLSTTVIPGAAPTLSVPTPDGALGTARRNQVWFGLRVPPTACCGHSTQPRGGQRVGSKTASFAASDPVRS
Sequence of 5-hydroxytryptamine receptor 2C (Homo sapiens) (P28335 whole entry): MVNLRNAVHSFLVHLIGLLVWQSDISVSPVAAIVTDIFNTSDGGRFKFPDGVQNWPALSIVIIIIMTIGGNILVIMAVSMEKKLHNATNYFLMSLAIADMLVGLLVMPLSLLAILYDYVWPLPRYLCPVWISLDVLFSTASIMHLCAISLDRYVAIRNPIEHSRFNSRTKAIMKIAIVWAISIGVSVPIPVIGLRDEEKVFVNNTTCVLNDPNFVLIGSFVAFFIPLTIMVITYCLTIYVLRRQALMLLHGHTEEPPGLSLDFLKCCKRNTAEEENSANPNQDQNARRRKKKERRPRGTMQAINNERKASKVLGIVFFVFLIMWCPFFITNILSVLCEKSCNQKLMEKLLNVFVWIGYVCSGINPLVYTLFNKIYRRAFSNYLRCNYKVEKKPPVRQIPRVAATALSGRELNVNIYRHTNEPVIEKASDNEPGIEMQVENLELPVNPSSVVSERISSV

Cn1cc(Cl)c2c(Oc3c(F)cc(Nc4cc(Cl)nc(N)n4)cc3F)ccnc21 [BAY-4900]
inactive: residual activity [1] 100% | residual activity [2] 95% | residual activity [3] 97% | residual activity [4] 100% | residual activity [5] 100% | residual activity [6] 97% | residual activity [7] 99% | residual activity [8] 88% | residual activity [9] 96% | residual activity [10] 83% | residual activity [11] 100% | residual activity [12] 100% | residual activity [13] 90% | residual activity [14] 100% | residual activity [15] 90% | residual activity [16] 90% | residual activity [17] 91% | residual activity [18] 83% | residual activity [19] 100% | residual activity [20] 100% | residual activity [21] 100% | residual activity [22] 82% | residual activity [23] 100% | residual activity [24] 100% | residual activity [25] 100% | residual activity [26] 96% | residual activity [27] 93% | residual activity [28] 93% | residual activity [29] 88% | inhibition [30] 17.3% | inhibition [31] 2.72% | inhibition [32] 0.35% | inhibition [33] 16.7%

Cc1c[nH]c2nccc(Oc3c(F)cc(Nc4cc(Cl)nc(N)n4)cc3F)c12 [BAY-549]
inactive: residual activity [1] 99% | residual activity [2] 95% | residual activity [3] 97% | residual activity [4] 98% | residual activity [5] 95% | residual activity [6] 100% | residual activity [7] 98% | residual activity [8] 80% | residual activity [9] 83% | residual activity [10] 94% | residual activity [11] 100% | residual activity [12] 100% | residual activity [13] 98% | residual activity [14] 100% | residual activity [15] 80% | residual activity [16] 85% | residual activity [17] 93% | residual activity [18] 74% | residual activity [19] 100% | residual activity [20] 96% | residual activity [21] 99% | residual activity [22] 88% | residual activity [23] 93% | residual activity [24] 98% | residual activity [25] 95% | residual activity [26] 94% | residual activity [27] 92% | residual activity [28] 91% | residual activity [29] 96% | inhibition [30] 10.4% | inhibition [31] 22.1% | inhibition [32] -9.86% | inhibition [33] 23.7%
